# Assay results as given in PubChem BioAssay AID248 (DTP/NCI, 2004).
# “And” between values parts separate entries of the source, which are not always exact repeats. Equal values may be shown once. Inconclusive results and toxic doses are left out.
# Test system: L1210 leukemia ip in BDF1 mice, survival T/C
# Assay: NCI In Vivo Anticancer Drug Screen. Data for tumor model L1210 Leukemia (intraperitoneal) in B6D2F1 (BDF1) mice
# Details: endpoint: mean survival time, higher = longer survival
# Outline: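 Ratio derived from survival: compound-dosed mice over vehicle-dosed mice, all bearing a transplantable tumor.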
# [1] = dose: 12.5 mg/kg/injection, schedule: Q04DX002 (ip), vehicle: Klucel (hydroxypropylcellulose) (HPC)
# [2] = dose: 100.0 mg/kg/injection, schedule: Q04DX003 (ip), vehicle: Klucel (hydroxypropylcellulose) (HPC)
# [3] = dose: 200.0 mg/kg/injection, schedule: Q04DX003 (ip), vehicle: Klucel (hydroxypropylcellulose) (HPC)
# [4] = dose: 100.0 mg/kg/injection, schedule: Q04DX003 (ip), vehicle: saline
# [5] = dose: 200.0 mg/kg/injection, schedule: Q04DX003 (ip), vehicle: saline
# [6] = dose: 400.0 mg/kg/injection, schedule: Q04DX003 (ip), vehicle: saline
# [7] = dose: 200.0 mg/kg/injection, schedule: Q01DX009 (ip), vehicle: saline
# [8] = dose: 100.0 mg/kg/injection, schedule: Q01DX009 (ip), vehicle: Klucel (hydroxypropylcellulose) (HPC)
# [9] = dose: 200.0 mg/kg/injection, schedule: Q01DX009 (ip), vehicle: Klucel (hydroxypropylcellulose) (HPC)
# [10] = dose: 400.0 mg/kg/injection, schedule: Q01DX009 (ip), vehicle: Klucel (hydroxypropylcellulose) (HPC)
# [11] = dose: 400.0 mg/kg/injection, schedule: Q04DX003 (ip), vehicle: Klucel (hydroxypropylcellulose) (HPC)
# [12] = dose: 50.0 mg/kg/injection, schedule: Q04DX002 (ip), vehicle: saline with Tween-80
# [13] = dose: 200.0 mg/kg/injection, schedule: Q01DX009 (ip), vehicle: saline with Tween-80
# [14] = dose: 400.0 mg/kg/injection, schedule: Q01DX009 (ip), vehicle: saline with Tween-80
smiles,measurement,setting,value
COc1ccc(OC)c2c(C(C)=O)c[nH]c12,T/C,[1],118 % of control
same,T/C,"dose: 25.0 mg/kg/injection, schedule: Q04DX002 (ip), vehicle: Klucel (hydroxypropylcellulose) (HPC)",112 % of control
same,T/C,"dose: 50.0 mg/kg/injection, schedule: Q04DX002 (ip), vehicle: Klucel (hydroxypropylcellulose) (HPC)",93 % of control
[O]=[Sn]([c]1ccccc1)[c]1ccccc1,T/C,"dose: 64.0 mg/kg/injection, schedule: Q04DX002 (ip), vehicle: saline with Tween-80",313 % of control
CC(=O)n1ccnc1/C=C\c1ccc([N+](=O)[O-])s1,T/C,[2],103 % of control
same,T/C,[3],101 % of control
CCOc1nc(=O)n(C2CCOC2=O)cc1F (stereo not given),T/C,"dose: 75.0 mg/kg/injection, schedule: Q01DX009 (ip), vehicle: other",103 % of control
same,T/C,[4],92 % of control
same,T/C,"dose: 150.0 mg/kg/injection, schedule: Q01DX009 (ip), vehicle: other",103 % of control
same,T/C,[5],106 % of control
same,T/C,"dose: 300.0 mg/kg/injection, schedule: Q01DX009 (ip), vehicle: other",100 % of control
same,T/C,[6],95 % of control
O=S1(=O)CCCC1,T/C,"dose: 100.0 mg/kg/injection, schedule: Q01DX009 (ip), vehicle: saline",104 % of control
same,T/C,[4],104 % of control
same,T/C,[7],98 % of control
same,T/C,[5],100 % of control
same,T/C,"dose: 400.0 mg/kg/injection, schedule: Q01DX009 (ip), vehicle: saline",96 % of control
same,T/C,[6],98 % of control
COc1cc(Cc2cc(OC)c(O)c(OC)c2)cc(OC)c1O,T/C,[8],107 % of control
same,T/C,[2],92 % of control
same,T/C,[9],93 % of control
same,T/C,[3],97 % of control
same,T/C,[10],101 % of control
same,T/C,[11],95 % of control
Clc1ccc(Cl)c(SSc2cc(Cl)ccc2Cl)c1,T/C,"dose: 100.0 mg/kg/injection, schedule: Q01DX001 (ip), vehicle: saline",101 % of control
same,T/C,"dose: 200.0 mg/kg/injection, schedule: Q01DX001 (ip), vehicle: saline",98 % of control
same,T/C,"dose: 400.0 mg/kg/injection, schedule: Q01DX001 (ip), vehicle: saline",89 % of control
Cc1cccc(C(=O)[O][Pb]([CH3])([CH3])[CH3])c1,T/C,[1],100 % of control
CNc1ccccc1C#N,T/C,[8],102 % of control
same,T/C,[2],93 % of control
same,T/C,[9],98 % of control
same,T/C,[3],95 % of control
same,T/C,[10],109 % of control
same,T/C,[11],97 % of control
O=S(=O)(F)c1ccc(-c2cc(Cl)c3cc(F)ccc3n2)cc1,T/C,[2],105 % of control
same,T/C,[3],106 % of control
same,T/C,[11],106 % of control
CCCCC#C/C(C)=N\Nc1ccc([N+](=O)[O-])cc1[N+](=O)[O-],T/C,[12],98 % of control
same,T/C,"dose: 100.0 mg/kg/injection, schedule: Q04DX002 (ip), vehicle: saline with Tween-80",173 % of control
COC(=O)C(Cc1[nH]c(N=Nc2ccc(Br)cc2)nc1N=Nc1ccc(Br)cc1)NC(=O)c1ccccc1 (stereo not given),T/C,"dose: 100.0 mg/kg/injection, schedule: Q01DX001 (ip), vehicle: saline with Tween-80",86 % of control
same,T/C,"dose: 200.0 mg/kg/injection, schedule: Q01DX001 (ip), vehicle: saline with Tween-80",93 % of control
same,T/C,"dose: 400.0 mg/kg/injection, schedule: Q01DX001 (ip), vehicle: saline with Tween-80",90 % of control
CCCCCCCCCCCCCOc1ccc(Sc2ccc([N+](=O)[O-])cc2)cc1,T/C,[11],88 % of control
CC(=O)OCC1OC(Oc2ncc(C)c(=O)[nH]2)C(Nc2ccc([N+](=O)[O-])cc2[N+](=O)[O-])C(OC(C)=O)C1OC(C)=O (stereo not given),T/C,"dose: 50.0 mg/kg/injection, schedule: Q01DX001 (ip), vehicle: carboxymethylcellulose (CMC)",100 % of control
same,T/C,"dose: 100.0 mg/kg/injection, schedule: Q01DX001 (ip), vehicle: carboxymethylcellulose (CMC)",97 % of control
same,T/C,"dose: 200.0 mg/kg/injection, schedule: Q01DX001 (ip), vehicle: carboxymethylcellulose (CMC)",103 % of control
same,T/C,"dose: 400.0 mg/kg/injection, schedule: Q01DX001 (ip), vehicle: carboxymethylcellulose (CMC)",92 % of control
CCCCCC(=O)/C=C/c1ccc(C)cc1,T/C,[4],102 % of control
same,T/C,[5],100 % of control
same,T/C,[6],112 % of control
CC1CCC(C(C)C)C(OC(=O)c2c([N+](=O)[O-])ccc([N+](=O)[O-])c2Br)C1 (stereo not given),T/C,[8],105 % of control
same,T/C,[9],100 % of control
NCCSC1(O)C(=O)c2ccccc2-c2ccccc21 (stereo not given),T/C,"dose: 37.5 mg/kg/injection, schedule: Q04DX003 (ip), vehicle: saline",94 % of control
same,T/C,"dose: 75.0 mg/kg/injection, schedule: Q01DX001 (ip), vehicle: saline",101 % of control
same,T/C,"dose: 75.0 mg/kg/injection, schedule: Q04DX003 (ip), vehicle: saline",103 % of control
same,T/C,"dose: 150.0 mg/kg/injection, schedule: Q01DX001 (ip), vehicle: saline",95 % of control
same,T/C,"dose: 150.0 mg/kg/injection, schedule: Q04DX003 (ip), vehicle: saline",95 % of control
O=C(COc1cccc(Cl)c1)Nc1ccc(Cl)cc1,T/C,"dose: 100.0 mg/kg/injection, schedule: Q01DX009 (ip), vehicle: gum acacia",86 % of control
same,T/C,"dose: 200.0 mg/kg/injection, schedule: Q01DX009 (ip), vehicle: gum acacia",86 % of control
same,T/C,"dose: 400.0 mg/kg/injection, schedule: Q01DX009 (ip), vehicle: gum acacia",87 % of control
COc1cc2c(c3oc(=O)ccc13)C=CC(C)(C)O2,T/C,[2],102 % of control
same,T/C,[3],107 % of control
same,T/C,[11],94 % of control
C=CCC(C)/C(C)=C(/C#N)C(=O)OCC (stereo not given),T/C,"dose: 75.0 mg/kg/injection, schedule: Q01DX001 (ip), vehicle: other",107 % of control
same,T/C,"dose: 150.0 mg/kg/injection, schedule: Q01DX001 (ip), vehicle: other",100 % of control
C/C(=N/N=C(/C)c1ccccc1)c1ccccc1,T/C,"dose: 50.0 mg/kg/injection, schedule: Q04DX003 (ip), vehicle: Klucel (hydroxypropylcellulose) (HPC)",110 % of control
same,T/C,[8],96 % of control
same,T/C,[2],94 % of control
same,T/C,[9],100 % of control
same,T/C,[3],103 % of control
same,T/C,[10],96 % of control
same,T/C,[11],97 % of control
C=CCOC(OCC=C)C(OCC=C)OCC=C,T/C,[13],97 % of control
same,T/C,[14],104 % of control
CN(C)c1ccc(-c2nc3ccccn3c2N)cc1,T/C,"dose: 3.13 mg/kg/injection, schedule: Q01DX009 (ip), vehicle: saline",95 % of control
same,T/C,"dose: 6.25 mg/kg/injection, schedule: Q01DX009 (ip), vehicle: saline",92 % of control and 101 % of control
same,T/C,"dose: 12.5 mg/kg/injection, schedule: Q01DX009 (ip), vehicle: saline",100 % of control and 114 % of control
O=C(C1CC=CCC1)N1CCCC1 (stereo not given),T/C,"dose: 100.0 mg/kg/injection, schedule: Q04DX002 (ip), vehicle: saline",101 % of control
same,T/C,"dose: 200.0 mg/kg/injection, schedule: Q04DX002 (ip), vehicle: saline",104 % of control
same,T/C,"dose: 400.0 mg/kg/injection, schedule: Q04DX002 (ip), vehicle: saline",104 % of control
CCC(=O)C(CC)c1ccc(OC)cc1OC (stereo not given),T/C,[8],93 % of control
same,T/C,[2],103 % of control
same,T/C,[9],95 % of control
same,T/C,[3],101 % of control
same,T/C,[10],98 % of control
same,T/C,[11],103 % of control
CCCCOc1cc([N+](=O)[O-])ccc1CO,T/C,"dose: 100.0 mg/kg/injection, schedule: Q01DX009 (ip), vehicle: saline with Tween-80",109 % of control
same,T/C,[13],98 % of control
same,T/C,[14],98 % of control
CC(=O)C(CN(C)C)c1ccccc1 (stereo not given),T/C,"dose: 12.5 mg/kg/injection, schedule: Q01DX009 (ip), vehicle: saline with Tween-80",91 % of control
same,T/C,"dose: 12.5 mg/kg/injection, schedule: Q04DX002 (ip), vehicle: saline with Tween-80",102 % of control
same,T/C,"dose: 25.0 mg/kg/injection, schedule: Q01DX009 (ip), vehicle: saline with Tween-80",98 % of control
same,T/C,"dose: 25.0 mg/kg/injection, schedule: Q04DX002 (ip), vehicle: saline with Tween-80",102 % of control
same,T/C,"dose: 50.0 mg/kg/injection, schedule: Q01DX009 (ip), vehicle: saline with Tween-80",89 % of control
same,T/C,"dose: 50.0 mg/kg/injection, schedule: Q01DX009 (ip), vehicle: saline",103 % of control
same,T/C,[12],109 % of control
same,T/C,[7],90 % of control
C=C(C)COc1ccc(C(=O)c2ccccc2)cc1,T/C,"dose: 100.0 mg/kg/injection, schedule: Q04DX002 (ip), vehicle: Klucel (hydroxypropylcellulose) (HPC)",103 % of control
same,T/C,"dose: 200.0 mg/kg/injection, schedule: Q04DX002 (ip), vehicle: Klucel (hydroxypropylcellulose) (HPC)",100 % of control
same,T/C,"dose: 400.0 mg/kg/injection, schedule: Q04DX002 (ip), vehicle: Klucel (hydroxypropylcellulose) (HPC)",94 % of control
